Data from patent US6930203B2, “Gelling agents or thickeners” (Applied NanoSystems B.V., priority 2001, dated 2005).

Columns and labels:
Format in all cases: physicochemical
[1] = Solvent scope of N,N′-dialkylaldaramides (1%) or N,N′-dialkylpentaramides (1%): gelation/solubility behaviour in solvents; parameters: key: g = gelation; s = soluble; p = precipitates; c = crystallizes; ns = not soluble; v = viscous; g* = unstable gel, precipitates; cg = crystalline gel; details: 1% gelling agent
Description: It will be understood that the use of the present gelling agents or thickeners to prepare a gel or to thicken a composition is also encompassed by the invention. As is well known, gelling behavior of compounds or compositions is highly unpredictable. […] Preferably, the gelling phenomenon is thermo reversible.
(§1) Preferred examples include aromatic and nonaromatic hydrocarbons, alcohols, ethers, esters, aldehydes, alkanoic acids, epoxides, amines, halogenated hydrocarbons, silicon oils, vegetable oils, phosphoric esters, sulfoxides, water and mixtures thereof. In order to obtain a gel, the gelling agent or thickener is preferably mixed with the composition to be transformed to a gel in an amount of between 0.01 and 50 wt. %, based on the weight of the composition. In a preferred embodiment, the mixture of the gelling agent or thickener and the composition is heated to allow for an even better gel formation or thickening. Typically, the heating will involve raising the temperature of the mixture to about 30-175° C. until a clear solution is obtained. In an alternative embodiment, the gelling agent is first dissolved in a polar or apolar solvent and then added to or sprayed into a composition or solvent to be converted into a gel.
Solvent scope of N,N′-dialkylaldaramides (1%) or N,N′-dialkylpentaramides (1%) 1-24 refers to the compounds prepared in Examples 1-23)

[2] = Gelation of N,N′-dialkyladaramides (1%) in mixtures of solvents; parameters: key: g = gelation; s = soluble; p = precipitates; c = crystallizes; ns = not soluble; v = viscous; g* = unstable gel, precipitates; cg = crystalline gel; details: 1% gelling agent
Description: as §1
Gelation of N,N′-dialkyladaramides (1%) in Mixtures of Solvents

[3] = Cold gelation: addition of a solution of the gelling agent (10% in NMP, 0.05 ml) to an organic solution (0.5 ml); parameters: key: g = gelation; s = soluble; p = precipitates; c = crystallizes; ns = not soluble; v = viscous; g* = unstable gel, precipitates; cg = crystalline gel
Description: as §1
Addition of a solution of the gelling agent (10% in NMP, 0.05 ml) to an organic solution (0.5 ml, “cold gelation”)

[4] = Maximum gelator concentration
Description: Maximum gelator concentration of 5 (C6-Glu-C6) and 15 (C12-Glu-C12)

[5] = Phase diagram, dropping ball method; details: in cyclohexane, silicon oil and p-xylene
Description: FIG. 1 depicts a phase diagram of 5 (C6-Glu-C6) and 15 (C12-Glu-C12) determined with the dropping ball method.
Phase Diagram of 5 (C6-Glu-C6) and 15 (C12-Glu-C12)) Dropping Ball Method)
The phase diagram of 5 (C6-Glu-C6) and 15 (C12-Glu-C12) was determined (see FIG. 1) by using the dropping ball method (A. Takashi, M. Sakai, T. Kato, Polym. J., 12 (1980) 335-341, F. S. Schoonbeek, J. H. van Esch, R. Hulst, R. M. Kellogg, B. L. Feringa, Chem. Eur. J., 6 (2000) 2633-2643).

[6] = Solubility in several solvents tested (for NMR)
Description: Synthesis of didodecyl galactaramide. Diethyl galacterate (2.66 g, 10.0 mmol) was added to a solution of dodecylamine (3.75 g, 20.5 mmol) in EtOH (50 ml). After 72 hours stirring, the precipitate was filtered (yield 4.87 g, 8.9 mmol, 89%).
Synthesis of dicyclododecyl galactaramide. Diethyl galacterate (2.67 15 g, 10.0 mmol) was added to a solution of cyclododecylamine (3.78 g, 20.7 mmol) in EtOH (50 ml). After 48 hours stirring, the precipitate was filtered and washed with H2O and EtOH (yield 2.43 g, 4.5 mmol, 45%).

Compound: O=C(NC1CCCCCCCCCCC1)[C@@H](O)[C@@H](O)[C@H](O)[C@@H](O)C(=O)NC1CCCCCCCCCCC1 [Example 15, dicyclododecyl D-glucaramide]
- Gelation/solubility behaviour in 1,2-dichloroethane [1]: g
- Gelation/solubility behaviour in 2-methoxyethanol [1]: c
- Gelation/solubility behaviour in 2-octanol [1]: s
- Gelation/solubility behaviour in 2-propanol [1]: c
- Gelation/solubility behaviour in Cyclohexane [1]: g
- Gelation/solubility behaviour in Dimethylsulfoxide [1]: cg
- Gelation/solubility behaviour in Ethanol [1]: cg
- Gelation/solubility behaviour in Hexadecane [1]: ns
- Gelation/solubility behaviour in Toluene [1]: g
- Gelation/solubility behaviour in Water [1]: ns
- Gelation/solubility behaviour in methyl benzoic acid [1]: g
- Gelation/solubility behaviour in methyl laurate [1]: g
- Gelation/solubility behaviour in n-butylacetate [1]: g
- Gelation/solubility behaviour in p-xylene [1]: g
- Gelation/solubility behaviour in silicon oil [1]: g
- Gelation in cyclohexane ([2]; Cyclohexane): g
- Gelation in Dioxane ([2]; Dioxane): cg
- Gelation in H2O ([2]; H2O): ns
- Gelation in cyclohexane/dioxane 1:1 ([2]; cyclohexane/dioxane 1:1): cg
- Gelation in dioxane/H2O 1:1 ([2]; dioxane/H2O 1:1): g
- Gelation in dioxane/H2O 1:2 ([2]; dioxane/H2O 1:2): ns
- Gelation in dioxane/H2O 2:1 ([2]; dioxane/H2O 2:1): cg
- Gelation in dioxane/H2O 3:1 ([2]; dioxane/H2O 3:1): cg
- Cold gelation in 1,2-dichloroethane ([3]; 0.05 ml added to 0.5 ml 1,2-dichloroethane): c
- Cold gelation in Acetone ([3]; 0.05 ml added to 0.5 ml Acetone): cg
- Cold gelation in Acetonitril ([3]; 0.05 ml added to 0.5 ml Acetonitril): g
- Cold gelation in Chloroform ([3]; 0.05 ml added to 0.5 ml Chloroform): s
- Cold gelation in Heptane ([3]; 0.05 ml added to 0.5 ml Heptane): p
- Cold gelation in Hexane ([3]; 0.05 ml added to 0.5 ml Hexane): p
- Cold gelation in Toluene ([3]; 0.05 ml added to 0.5 ml Toluene): g
- Cold gelation in benzaldehyde ([3]; 0.05 ml added to 0.5 ml benzaldehyde): s
- Cold gelation in cyclohexane ([3]; 0.05 ml added to 0.5 ml cyclohexane): g
- Cold gelation in diethyl ether ([3]; 0.05 ml added to 0.5 ml diethyl ether): g
- Cold gelation in ethylacetate ([3]; 0.05 ml added to 0.5 ml ethylacetate): p
- Cold gelation in methyl laurate ([3]; 0.05 ml added to 0.5 ml methyl laurate): g
- Cold gelation in n-butyl acetate ([3]; 0.05 ml added to 0.5 ml n-butyl acetate): g
- Cold gelation in silicon oil ([3]; 0.05 ml added to 0.5 ml silicon oil): g
- Cold gelation in tetrahydrofuran ([3]; 0.05 ml added to 0.5 ml tetrahydrofuran): c
- Maximum gelator concentration in 1,2-dichloroethane ([4]; 1,2-dichloroethane): <50%
- Maximum gelator concentration in Toluene ([4]; Toluene): <50%
- Maximum gelator concentration in cyclohexane ([4]; cyclohexane): <5%
- Maximum gelator concentration in methyl laurate ([4]; methyl laurate): <5%
- Maximum gelator concentration in n-butylacetate ([4]; n-butylacetate): <50%
- Maximum gelator concentration in silicon oil (Dow Corning 702) ([4]; silicon oil (Dow Corning 702)): <50%
- Correlation between Tm^−1 and the logarithm of the mole fraction [5]: linear correlation

Compound: CCCCCCCCCCCCNC(=O)[C@@H](O)[C@H](O)[C@H](O)[C@@H](O)C(=O)NCCCCCCCCCCCC [Example 14, didodecyl galactaramide]
- Gelation/solubility behaviour in 1,2-dichloroethane [1]: ns
- Gelation/solubility behaviour in 2-octanol [1]: ns
- Gelation/solubility behaviour in 2-propanol [1]: ns
- Gelation/solubility behaviour in Cyclohexane [1]: ns
- Gelation/solubility behaviour in Dimethylsulfoxide [1]: ns
- Gelation/solubility behaviour in Ethanol [1]: ns
- Gelation/solubility behaviour in Hexadecane [1]: ns
- Gelation/solubility behaviour in Toluene [1]: ns
- Gelation/solubility behaviour in Water [1]: ns
- Gelation/solubility behaviour in n-butylacetate [1]: ns
- Gelation/solubility behaviour in p-xylene [1]: ns
- Solubility in several solvents tested [6]: low solubility

Compound: O=C(NC1CCCCCCCCCCC1)[C@@H](O)[C@H](O)[C@H](O)[C@@H](O)C(=O)NC1CCCCCCCCCCC1 [Example 17, dicyclododecyl galactaramide]
- Gelation/solubility behaviour in 1,2-dichloroethane [1]: ns
- Gelation/solubility behaviour in 2-methoxyethanol [1]: ns
- Gelation/solubility behaviour in 2-octanol [1]: ns
- Gelation/solubility behaviour in 2-propanol [1]: ns
- Gelation/solubility behaviour in Cyclohexane [1]: ns
- Gelation/solubility behaviour in Dimethylsulfoxide [1]: ns
- Gelation/solubility behaviour in Ethanol [1]: ns
- Gelation/solubility behaviour in Hexadecane [1]: ns
- Gelation/solubility behaviour in Toluene [1]: ns
- Gelation/solubility behaviour in Water [1]: ns
- Gelation/solubility behaviour in methyl benzoic acid [1]: ns
- Gelation/solubility behaviour in methyl laurate [1]: ns
- Gelation/solubility behaviour in n-butylacetate [1]: ns
- Gelation/solubility behaviour in p-xylene [1]: ns
- Gelation/solubility behaviour in silicon oil [1]: ns
- Solubility in several solvents tested [6]: low solubility
